Assay results taken from article PMC10002963, “[4+2]-Cycloaddition to 5-Methylidene-Hydantoins and 5-Methylidene-2-Thiohydantoins in the Synthesis of Spiro-2-Chalcogenimidazolones” (International Journal of Molecular Sciences, 2023).
≈ marks a conversion by molar mass, not a printed value. Where two headings read alike, the source gives them in different places.

How the values were obtained:
[1] = test system: VA13 cell line; assay: MTT cytotoxicity assay, VA13; assay type: cell-based, human
Procedure: (§1) Some of the obtained spiro-derivatives were tested for cytotoxicity using the standard MTT assay. Cytotoxicity was evaluated using the cell lines of various etiologies: breast cancer MCF7, human lung carcinoma A549, non-cancer human embryonic kidney cell line HEK293T, and non-cancer lung fibroblast VA13 cell line. Lung cancers and breast cancers are among the most common causes of tumor lesions and related death in the world, and non-cancerous cells were applied for the specificity of action evaluation. The results are shown in Table 5; the dose-response dependency graphs are available in Supplementary Information.
(§2) Cell cultures. Human embryonic kidney HEK293T cell line was kindly provided by Dr. E. Knyazhanskaya; immortalized human fibroblasts cell line VA13 was kindly provided by Dr. M. Rubtsova; human breast cancer cell line MCF7 and human lung adenocarcinoma cell line A549 were kindly provided by Dr. S. Dmitriev. MCF7, VA13, A549, and HEK293T cell lines were maintained in DMEM/F-12 (Thermo Fisher Scientific, Waltham, Massachusetts, USA) culture medium containing 10% fetal bovine serum (Thermo Fisher Scientific, Waltham, Massachusetts, USA) and 50 µg/mL penicillin and 0.05 mg/mL streptomycin at 37°C (Thermo Fisher Scientific, Waltham, Massachusetts, USA) in 5% CO2. Cells were maintained at 37°C in a humidified incubator MCO-18AC (Sanyo, Japan) supplied with 5% CO2. Cell cultures were tested for the absence of mycoplasma.
(§3) In Vitro Survival Assay (MTT Assay). The cytotoxicity was tested using the MTT (3-(4,5-dimethylthiazol-2-yl)2,5-diphenyl tetrazolium bromide) assay with some modifications. A total of 2500 cells per well for the MCF7, HEK293T cell lines, 3000 cells for the A549 cell line, or 4000 cells per well for the VA-13 cell line were plated out in 135 µL of DMEM-F12 media (Gibco, USA) in a 96-well plate and then incubated in the 5% CO2 incubator for first 20 h without treating. After this, 15 µL of media-DMSO solutions of tested substances were added to the cells (final DMSO concentrations in the media were 0,5% or less) and treated for65 h with 45 nM–100 µM (eight dilutions) of our substances (triplicate each) and doxorubicin as a control substance. Then the MTT reagent (Paneco LLC, Moscow, Russia) was added to cells up to the final concentration of 0.5 g/L (10 × stock solution in PBS was used), and cells were incubated for 2 h at 37 °C under an atmosphere of 5% CO2. Then the MTT solution was discarded, and 140 µL of DMSO (PharmaMed LLC, Russia) was added. The plates were swayed on a shaker (200 rpm) to dissolve the formazan. The absorbance was measured using a microplate reader (VICTOR ×5 Light Plate Reader, PerkinElmer, USA) at a wavelength of 555 nm (in order to measure formazan concentration). The results were used to construct dose-response graphs and to estimate IC50absvalues (IC50abs is the concentration resulting in a two-fold decrease in the number of cells in comparison with the untreated cells) and, in some cases, IC50 values (IC50 is the concentration resulting in half of the maximal cytotoxic effect) with GraphPadSoftware, Inc., San Diego, CA, USA.

[2] = test system: HEK293T cell line; assay: MTT cytotoxicity assay, HEK293T; assay type: cell-based, human
Procedure: as §1, §2, §3

[3] = test system: A549 cell line; assay: MTT cytotoxicity assay, A549; assay type: cell-based, human
Procedure: as §1, §2, §3

[4] = test system: MCF7 cell line; assay: MTT cytotoxicity assay, MCF7; assay type: cell-based, human
Procedure: as §1, §2, §3

[5] = test system: E. coli K-12 (WT); assay: Minimal inhibitory concentration, E. coli K-12; assay type: cell-based, Escherichia coli; details: LB medium, overnight 37°C, >1000 = inactive in this test
Procedure: (§4) Then the minimal inhibitory concentration (MIC) was measured for E. coli BW25113 DTC and E. coli K-12 (WT) for the 12 most bacteriotoxic compounds from the plate test.
(§5) Determination of Minimal Inhibitory Concentration (MIC). MIC values were determined by monitoring growth in 96-well plates of E. coli cultures exposed to serial dilutions of compounds. Specifically, overnight E. coli BW25113 DTC and K12 cultures were diluted in 96-well plates to an OD590 of 0.01 in LB medium. The wells were then supplemented with the solution of each tested compound at concentrations of 1 mM, 500 µM, 250 µM, 125 µM, 62.5 µM, 31.25 µM, 15.63 µM, 7.81 µM, 3.91 µM, and 1.95 µM. Then the plates were incubated with shaking (200 r.p.m.) overnight at 37°C, and cell growth was assessed by scanning OD590 each well with a VictorX5 reader.

[6] = test system: E. coli BW25113 DTC; assay: Minimal inhibitory concentration, E. coli BW25113 DTC; assay type: cell-based, Escherichia coli
Procedure: as §4, §5

[7] = VA13, 65-h treatment, MTT, Cmax 100 µM, read-out: IC50abs
[8] = 65-h treatment, Cmax 100 µM, read-out: IC50abs
[9] = A549, 65-h treatment, MTT, Cmax 100 µM, read-out: IC50abs
[10] = MCF7, 65-h treatment, MTT, Cmax 100 µM, read-out: IC50abs
[11] = MCF7, MTT, Table S1, read-out: IC50 (concentration resulting in half of the maximal cytotoxic effect)
[12] = VA13, MTT, Table S1, read-out: IC50 (concentration resulting in half of the maximal cytotoxic effect)
[13] = E. coli BW25113 DTC, LB medium, overnight 37°C, >1000 = inactive in this test
[14] = Table S1, read-out: IC50 (concentration resulting in half of the maximal cytotoxic effect)
[15] = A549, MTT, Table S1, read-out: IC50 (concentration resulting in half of the maximal cytotoxic effect)
[16] = Homo sapiens, MCF7, 65-h treatment, MTT, Cmax 100 µM, read-out: IC50abs
[17] = Homo sapiens, VA-13, VA13, 65-h treatment, MTT, Cmax 100 µM, read-out: IC50abs
[18] = Homo sapiens, HEK-293T, 65-h treatment, Cmax 100 µM, read-out: IC50abs
[19] = Homo sapiens, A549, 65-h treatment, MTT, Cmax 100 µM, read-out: IC50abs

| Structure (SMILES) | IC50 [1, 7] | IC50 [2, 8] | IC50 [3, 9] | IC50 [4, 10] | IC50 [4, 16] | IC50 [1, 17] | IC50 [2, 18] | IC50 [3, 19] | also measured |
| --- | --- | --- | --- | --- | --- | --- | --- | --- | --- |
| CC1=C(C)CC2(CC1)NC(=S)N(c1ccccc1F)C2=O (racemic) [Compound 54] | > 100 µM | 29.6 ± 3 µM | 49.5 ± 5 µM |  |  |  |  |  |  |
| CC1=C(C)CC2(CC1)NC(=S)N(c1ccccc1Cl)C2=O (racemic) [Compound 55] | > 100 µM | ~5 µM | ~10 µM | ~100 µM |  |  |  |  | IC50 [4, 11]: 1.5 µM; MIC [5]: >1000 µM; IC50 [1, 12]: 1.9 µM; MIC [6, 13]: >1000 µM; IC50 [2, 14]: 3.1 µM; IC50 [3, 15]: 2.1 µM |
| CC1=C(C)CC2(CC1)NC(=S)N(c1cccc(C)c1)C2=O (racemic) [Compound 56] | 98.7 ± 17.6 µM | 22 ± 8 µM | > 100 µM |  |  |  |  |  |  |
| CC1=C(C)CC2(CC1)NC(=S)N(c1ccc(F)cc1)C2=O (racemic) [Compound 58] | 45 ± 7.5 µM | 13.7 ± 2.3 µM | 23.2 ± 3.5 µM | 59 ± 13.3 µM |  |  |  |  |  |
| COc1ccc(N2C(=O)C3(CCC(C)=C(C)C3)NC2=S)cc1 (racemic) [Compound 60] | 75.3 ± 17 µM | 10.2 ± 1.3 µM | 52.2 ± 5.7 µM | 98.3 ± 19.8 µM |  |  |  |  | MIC [5]: >1000 µM; MIC [6, 13]: >1000 µM |
| CC1=C(C)CC2(CC1)NC(=S)N(c1c(C)cccc1C)C2=O (racemic) [Compound 61] |  | ~4 µM | ~10 µM | ~100 µM |  |  |  |  | IC50 [4, 11]: 0.9 µM; IC50 [1, 12]: 0.4 µM; IC50 [2, 14]: 1.4 µM; IC50 [3, 15]: 4.2 µM |
| O=C1N[C@@]2(C[C@@H]3C=C[C@H]2C3)C(=O)N1c1ccccc1 [Compound 28a] |  |  |  |  | > 100 µM | > 100 µM | > 100 µM | > 100 µM | MIC ([5]; Escherichia coli): > 1000 µM; MIC ([6]; Escherichia coli, BW25113): > 1000 µM |
| O=C1NC2(CC3C=CC2C3)C(=O)N1c1ccccc1 (stereo not drawn) [Compound 28b] | > 100 µM | > 100 µM | > 100 µM | > 100 µM |  |  |  |  | MIC [5]: >1000 µM; MIC [6, 13]: >1000 µM |
| O=C1N(c2ccccc2)C(=S)NC12CC1C=CC2C1 (stereo not drawn) [Compound 34a] |  |  |  |  | > 100 µM | > 100 µM | 83 ± 3.7 µM | > 100 µM |  |
| O=C1N(c2ccccc2F)C(=S)NC12CC1C=CC2C1 (stereo not drawn) [Compound 35b] | > 100 µM | 87.4 ± 9.9 µM | > 100 µM | > 100 µM |  |  |  |  | MIC [5]: >1000 µM; MIC [6, 13]: 1000 µM (≈ 288 µg/mL) |
| Cc1cccc(N2C(=O)C3(CC4C=CC3C4)NC2=S)c1 (stereo not drawn) [Compound 37a] | > 100 µM | > 100 µM | > 100 µM | > 100 µM |  |  |  |  |  |
| COc1cccc(N2C(=O)C3(CC4C=CC3C4)NC2=S)c1 (stereo not drawn) [Compound 38a] | > 100 µM |  | > 100 µM | > 100 µM |  |  |  |  |  |
| COc1ccc(N2C(=O)C3(CC4C=CC3C4)NC2=S)cc1 (stereo not drawn) [Compound 39b] | > 100 µM |  | > 100 µM | > 100 µM |  |  |  |  |  |
| O=C1NC2(C(=O)N1c1ccccc1)C1C=CC(C1)C2Br (stereo not drawn) [Compound 40a] | > 100 µM | 56.4 ± 2.5 µM | > 100 µM | > 100 µM |  |  |  |  | MIC [5]: >1000 µM; MIC [6, 13]: 1000 µM (≈ 333 µg/mL) |
| O=C1NC2(C(=O)N1c1ccccc1)C1C=CC(C1)C2I (stereo not drawn) [Compound 41a] | > 100 µM | 69.1 ± 4.8 µM | > 100 µM | > 100 µM |  |  |  |  | MIC [5]: >1000 µM; MIC [6, 13]: 1000 µM (≈ 380 µg/mL) |
| O=C1N(c2ccccc2)C(=S)NC12CC1C=CC2CC1 (stereo not drawn) [Compound 45a] |  |  |  |  |  | > 100 µM | 21.3 ± 2.3 µM | 85.2 ± 10.1 µM | IC50 ([4]; Homo sapiens, MCF7, 65-h treatment, MTT, Cmax 100 µM, marked **, read-out: IC50abs, calculated by data extrapolation, exceeds Cmax): > 100 µM |
| Cc1cccc(C)c1N1C(=O)C2(CC3C=CC2CC3)NC1=S (stereo not drawn) [Compound 51a] |  |  |  |  | > 100 µM | > 100 µM | > 100 µM | > 100 µM | MIC ([5]; Escherichia coli): > 1000 µM; MIC ([6]; Escherichia coli, BW25113): > 1000 µM |
| COc1cccc(N2C(=O)C3(CCC(C)=C(C)C3)NC2=S)c1 (stereo not drawn) [Compound 57] |  |  |  |  | 50.6 ± 5.2 µM | 80.8 ± 13.7 µM | 18.3 ± 1.7 µM | 35.4 ± 4.8 µM |  |
| CC1=C(C)CC2(CC1)NC(=S)N(c1ccc(Cl)cc1)C2=O (stereo not drawn) [Compound 59] | 52.6 ± 7.8 µM | 4.4 ± 0.6 µM | 26.2 ± 3.9 µM | 76.6 ± 16 µM |  |  |  |  |  |
| CC1=C(C)CC2(CC1)NC(=S)N(c1ccc(F)c(Cl)c1)C2=O (stereo not drawn) [Compound 62] |  |  |  |  | 11.1 ± 0.6 µM | 9.8 ± 0.4 µM | 6.8 ± 0.3 µM | 7.9 ± 0.4 µM | MIC ([5]; Escherichia coli): > 1000 µM; MIC ([6]; Escherichia coli, BW25113): 1000 µM (≈ 339 µg/mL) |
| CSC1=NC2(CC3C=CC2C3)C(=O)N1c1ccccc1 (stereo not drawn) [Compound 72] |  |  |  |  | > 100 µM | > 100 µM | 60.1 ± 3.4 µM | > 100 µM | MIC ([5]; Escherichia coli): > 1000 µM; MIC ([6]; Escherichia coli, BW25113): 500 µM (≈ 142 µg/mL) |
| O=C1N[C@@]2(C[C@@H]3C=C[C@H]2C3)C(=O)N1c1ccccc1Cl [Compound 75] |  |  |  |  | > 100 µM | > 100 µM | 99 ± 11.1 µM | > 100 µM | MIC ([5]; Escherichia coli): > 1000 µM; MIC ([6]; Escherichia coli, BW25113): 500 µM (≈ 144 µg/mL) |
| Cc1cccc(N2C(=O)N[C@@]3(C[C@@H]4C=C[C@H]3C4)C2=O)c1 [Compound 76] |  |  |  |  | 86.4 ± 7.3 µM |  | 48.6 ± 2.4 µM |  | MIC ([5]; Escherichia coli): > 1000 µM; IC50 ([1]; Homo sapiens, VA-13, VA13, 65-h treatment, MTT, Cmax 100 µM, marked **, read-out: IC50abs, calculated by data extrapolation, exceeds Cmax): > 100 µM; MIC ([6]; Escherichia coli, BW25113): 125 µM (≈ 33.5 µg/mL); IC50 ([3]; Homo sapiens, A549, 65-h treatment, MTT, Cmax 100 µM, marked **, read-out: IC50abs, calculated by data extrapolation, exceeds Cmax): > 100 µM |
| COc1cccc(N2C(=O)NC3(CCC(C)=C(C)C3)C2=O)c1 (stereo not drawn) [Compound 77] |  |  |  |  |  |  |  |  | MIC ([6]; Escherichia coli, BW25113): 125 µM (≈ 37.5 µg/mL) |
